Values quoted from earlier work, collected in EP2871189A1, “High-affinity monoclonal anti-strep-tag antibody” (INSTITUT PASTEUR, priority 2013, dated 2015).

Molecular target: Strep-Tactin
Settings: individual binding site (monovalent interaction) on Strep-Tactin; Schmidt TG et al, J.Mol. Biol. 1996; read-out: dissociation constant

Substance: Strep-tag II peptide: peptide tag of minimal sequence WSHPQFEK (SEQ ID NO:9) that binds streptavidin / Strep-Tactin
- Kd: ~1000 nM
